In patent publication US10792633B2, “Composition comprising a fluorine-containing surfactant” (HWK-Kronbichler GmbH, priority 2016, dated 2020):
In brackets after ≈: the same amount, converted by molar mass. Read-outs that look alike come from different tables or passages of the source. Marks after values point to notes of the source that are not given here. One block for each compound: values may come before it.

Assays:
Assay type in all cases: physicochemical
[1] = Determining the solubility in water; details: for solubility at 5 min: water, 23 °C, thermodynamic from solid
Experimental: The suspension was added to the ultrasound bath for 5 minutes and was centrifuged for 20 minutes. The supernatant was then weighed and was rinsed with argon for 5 minutes to remove any possibly dissolved oxygen. […] The experiment was performed at approximately 23° C.

[2] = Measurement of surface tension at suspended drop (Drop Shape Analyser DSA 25)
Experimental: The surface tension was determined at suspended drop using a “Drop Shape Analyser DSA 25” of the Krüss corporation. The drop volume at most measurements amounted to approximately 5 μl. […] Each sample was measured a total of ten times. The standard deviations are marked by s in the table shown below. In the measurements at a concentration of 0.05 wt % surfactant, larger drop volumes were used in some cases to obtain a better reproducibility of the measurement results.

[3] = Solubility in organic solvents
[4] = Determination of the static surface tension in water (Example 10); details: mean of 10
Text: The determination of the static surface tension for 3-(1H,1H,2H,2H-perfluorooctyl)-2-((1H,1H,2H,2H-perfluorooctyl)thio)-1-methyl-1H-imidazolium chloride in water produced the values indicated in the following Table 6 for the surface tension (OFS) in […] at different concentrations c in wt %. The values for OFS represent the mean value from 10 measurements. The standard deviation S [mN/m] for these values is likewise indicated.

[5] = Use as an emulsifying agent for Teflon (stability of the suspension in water); details: 0.100 g surfactant and 0.200 g Teflon 1 μm in water
Experimental: A solution of 10 ml water, 0.100 g 1-methyl-2-((1H,1H,2H,2H-perfluorooctyl)thio)-1H-imidazolium-2-acrylamido-2-methylpropanesulfonate was dissolved in 10 ml water and 0.200 g Teflon 1 μm (Sigmal-Aldrich) were subsequently added to this solution. A suspension was formed in this process that remained stable for at least 4 hours. After 2 days a white powder had been deposited on the bottom.

[6] = surfactant in water 0.05 wt %, n = 10, drop approx. 5 μl, * 8 μl, ** 20 μl
[7] = surfactant in water 0.5 wt %, n = 10, 24.5-25.1° C.

Compound: 1-methyl-2-((1H,1H,2H,2H-perfluorooctyl)thio)-1H-imidazolium-2-(methacryloyloxy)ethane-1-sulfonate [Synthesis Example 1]
Solubility in water ([1]; approximately 23° C., ultrasound bath 5 minutes, centrifuged 20 minutes): approximately 430 g/L
OFS (surface tension) ([2]; c 0.005 % in water): 70.28 mN/m
OFS (surface tension) ([2]; c 0.01 % in water): 32.11 mN/m
OFS (surface tension) ([2]; c 0.1 % in water): 20.8 mN/m
OFS (surface tension) [2, 6]: 23.24 mN/m
OFS (surface tension) [2, 7]: 16.22 mN/m

Solubility in 3M Novec 71 IPA [3]: 20.5 mg/mL
Compound: 1-methyl-2-((perfluorohexylethyl)thio)imidazoliumiodide-Co-1-iodoperfluorooctylane [1-iodoperfluorooctyl-Co-complex]

Compound: CS(=O)(=O)O.Cn1ccnc1SCCC(F)(F)C(F)(F)C(F)(F)C(F)(F)C(F)(F)C(F)(F)F [1-methyl-2-((1H,1H,2H,2H-perfluorooctyl)thio)-1H-imidazolium-methanesulfonate]
OFS (surface tension) [2, 6]: 24.39 mN/m
OFS (surface tension) [2, 7]: 16.21 mN/m

Compound: CC1(C)C2CCC1(CS(=O)(=O)O)C(=O)C2.Cn1ccnc1SCCC(F)(F)C(F)(F)C(F)(F)C(F)(F)C(F)(F)C(F)(F)F [1-methyl-2-((1H,1H,2H,2H-perfluorooctyl)thio)imidazolium-(±)-camphor-10-sulfonate]
Solubility in water ([1]; values not exact): >4000 mg/mL

Compound: Br.Cn1ccnc1SCCC(F)(F)C(F)(F)C(F)(F)C(F)(F)C(F)(F)C(F)(F)F [1-methyl-2-((1H,1H,2H,2H-perfluorooctyl)thio)imidazoliumbromide]
Solubility in water ([1]; values not exact): 1200 mg/mL

Compound: Cl.Cn1ccnc1SCCC(F)(F)C(F)(F)C(F)(F)C(F)(F)C(F)(F)C(F)(F)F [1-methyl-2-((1H,1H,2H,2H-perfluorooctyl)thio)imidazoliumchloride]
Solubility in water ([1]; values not exact): 1750 mg/mL

OFS (static surface tension) ([4]; c 0.0025 wt % in water): 40.74 mN/m
OFS (static surface tension) ([4]; c 0.0050 wt % in water): 21.29 mN/m
OFS (static surface tension) ([4]; c 0.0075 wt % in water): 18.89 mN/m
OFS (static surface tension) ([4]; c 0.0100 wt % in water): 16.29 mN/m
OFS (static surface tension) ([4]; c 0.0250 wt % in water): 14.43 mN/m
OFS (static surface tension) ([4]; c 0.0500 wt % in water): 15.05 mN/m
OFS (static surface tension) ([4]; c 0.0750 wt % in water): 15.02 mN/m
OFS (static surface tension) ([4]; c 0.1000 wt % in water): 15 mN/m
OFS (static surface tension) ([4]; c 0.2500 wt % in water): 15.5 mN/m
OFS (static surface tension) ([4]; c 0.5000 wt % in water): 14.5 mN/m
Compound: Cn1cc[n+](CCC(F)(F)C(F)(F)C(F)(F)C(F)(F)C(F)(F)C(F)(F)F)c1SCCC(F)(F)C(F)(F)C(F)(F)C(F)(F)C(F)(F)C(F)(F)F.[Cl-] [3-(1H,1H,2H,2H-perfluorooctyl)-2-((1H,1H,2H,2H-perfluorooctyl)thio)-1-methyl-1H-imidazolium chloride]

OFS (surface tension) [2, 6]: 64.87** mN/m
OFS (surface tension) [2, 7]: 46.42 mN/m
Compound: N.O=C(O)C(F)(F)C(F)OC(F)(F)C(F)(F)C(F)(F)OC(F)(F)F (centres unmarked) [Ammonium-4,8-dioxa-3H-perfluorononanoate, reference compound]

Compound: O=C(O)C(F)(F)C(F)(F)C(F)(F)C(F)(F)C(F)(F)C(F)(F)C(F)(F)F [Perfluorooctanoic acid, reference compound]
OFS (surface tension) [2, 6]: 55.68** mN/m
OFS (surface tension) [2, 7]: 16 mN/m

Compound: C=CC(=O)NC(C)(C)CS(=O)(=O)O.Cn1ccnc1SCCC(F)(F)C(F)(F)C(F)(F)C(F)(F)C(F)(F)C(F)(F)F [Synthesis Example 2, 1-methyl-2-((1H,1H,2H,2H-perfluorooctyl)thio)-1H-imidazolium-2-acrylamido-2-methylpropanesulfonate]
time the Teflon suspension remained stable [5]: at least 4 hours
soluble in water (in words) [1]: soluble in water

Compound: Cn1cc[n+](CCCS(=O)(=O)[O-])c1SCCC(F)(F)C(F)(F)C(F)(F)C(F)(F)C(F)(F)C(F)(F)F [Synthesis Example 6, 3-(1-methyl-2-((1H,1H,2H,2H-perfluorooctyl)thio)imidazolium-3-yl) propane-1-sulfonate]
solubility at 5 min ([1]; values not exact, read-out: Solubility in water): 160 mg/mL (≈ 275 mM)
solubility at 5 min ([1]; read-out: water solubility): ~160 mg/mL (≈ 275 mM)
OFS (surface tension) [2, 6]: 29.74* mN/m
OFS (surface tension) [2, 7]: 24.94 mN/m
